The results in this text go back to publication PMC5218480 (PLoS ONE, 2017).

The test has as its system MV-4-11 cells. The test can be described thus: Gene expression microarray analysis (Affymetrix PrimeView) and GSEA. Format: cell-based, human. Further details: RFU PODN (11730768_x_at) / Fold change /veh PODN (11730768_x_at) / RFU LINC00158 (11744669_a_at) / Fold change /veh LINC00158 (11744669_a_at) / RFU DUSP10 (11751237_a_at) / Fold change /veh DUSP10 (11751237_a_at) / RFU ID3 (11757404_x_at) / Fold change /veh ID3 (11757404_x_at) / RFU PLEKHG5 (11737974_s_at) / Fold change /veh PLEKHG5 (11737974_s_at) / RFU LRRC4B (11730491_at) / Fold change /veh LRRC4B (11730491_at) / RFU GIMAP4 (11747438_a_at) / Fold change /veh GIMAP4 (11747438_a_at) / RFU KRT8 (11758183_x_at) / Fold change /veh KRT8 (11758183_x_at) / RFU CNN1 (11734310_a_at) / Fold change /veh CNN1 (11734310_a_at) / RFU VPS37D (11726825_at) / Fold change /veh VPS37D (11726825_at) / RFU C10orf10 (11716522_x_at) / Fold change /veh C10orf10 (11716522_x_at) / RFU KIR2DL2 /// KIR2DL4 /// KIR2DL5A /// KIR2DL5B /// KIR2DS1 /// KIR2DS2 /// KIR2DS3 /// KIR2DS4 /// KIR3DL3 /// KIR3DL3 /// KIR3DS1 (11738374_at) / Fold change /veh KIR2DL2 /// KIR2DL4 /// KIR2DL5A /// KIR2DL5B /// KIR2DS1 /// KIR2DS2 /// KIR2DS3 /// KIR2DS4 /// KIR3DL3 /// KIR3DL3 /// KIR3DS1 (11738374_at) / RFU C1QL1 (11718748_at) / Fold change /veh C1QL1 (11718748_at) / RFU TMPRSS4 (11747572_a_at) / Fold change /veh TMPRSS4 (11747572_a_at) / RFU HAMP (11756126_x_at) / Fold change /veh HAMP (11756126_x_at) / RFU RNFT2 (11725882_a_at) / Fold change /veh RNFT2 (11725882_a_at) / RFU NR4A2 (11747474_a_at) / Fold change /veh NR4A2 (11747474_a_at) / RFU ABCC12 (11746883_a_at) / Fold change /veh ABCC12 (11746883_a_at) / RFU TMEM136 (11760407_x_at) / Fold change /veh TMEM136 (11760407_x_at) / RFU CLDN22 /// WWC2 (11732394_at) / Fold change /veh CLDN22 /// WWC2 (11732394_at) / RFU HLA-DPB1 (11760878_x_at) / Fold change /veh HLA-DPB1 (11760878_x_at) / RFU SPINT1 (11716480_a_at) / Fold change /veh SPINT1 (11716480_a_at) / RFU GAP43 (11754022_s_at) / Fold change /veh GAP43 (11754022_s_at) / RFU A4GNT (11735810_at) / Fold change /veh A4GNT (11735810_at) / RFU PRB3 (11715151_x_at) / Fold change /veh PRB3 (11715151_x_at) / RFU TUBB4B (11761932_at) / Fold change /veh TUBB4B (11761932_at) / RFU CAPN14 (11732068_a_at) / Fold change /veh CAPN14 (11732068_a_at) / RFU TMCC2 (11721928_a_at) / Fold change /veh TMCC2 (11721928_a_at) / RFU IRGQ (11745062_a_at) / Fold change /veh IRGQ (11745062_a_at) / RFU FAM174B (11720279_a_at) / Fold change /veh FAM174B (11720279_a_at) / RFU TMPRSS4 (11748680_a_at) / Fold change /veh TMPRSS4 (11748680_a_at) / RFU FAM212B (11763350_a_at) / Fold change /veh FAM212B (11763350_a_at) / RFU PLEKHG5 (11743358_a_at) / Fold change /veh PLEKHG5 (11743358_a_at) / RFU ZSCAN30 (11745921_a_at) / Fold change /veh ZSCAN30 (11745921_a_at) / RFU CMKLR1 (11741424_a_at) / Fold change /veh CMKLR1 (11741424_a_at) / RFU LOC101060620 /// MAPK8IP1 (11723275_at) / Fold change /veh LOC101060620 /// MAPK8IP1 (11723275_at) / RFU SPTSSB (11747773_x_at) / Fold change /veh SPTSSB (11747773_x_at) / RFU PRSS12 (11739890_at) / Fold change /veh PRSS12 (11739890_at) / RFU BIN1 (11741810_x_at) / Fold change /veh BIN1 (11741810_x_at) / RFU WNT11 (11732464_a_at) / Fold change /veh WNT11 (11732464_a_at) / RFU C10orf10 (11716521_a_at) / Fold change /veh C10orf10 (11716521_a_at) / RFU C5orf56 (11738089_at) / Fold change /veh C5orf56 (11738089_at) / RFU CYB561 (11721691_x_at) / Fold change /veh CYB561 (11721691_x_at) / RFU ANKRD19P (11752326_a_at) / Fold change /veh ANKRD19P (11752326_a_at) / RFU OR2T12 /// OR2T33 /// OR2T8 (11738714_s_at) / Fold change /veh OR2T12 /// OR2T33 /// OR2T8 (11738714_s_at) / RFU VCAN (11748164_a_at) / Fold change /veh VCAN (11748164_a_at) / RFU JSRP1 (11732532_at) / Fold change /veh JSRP1 (11732532_at) / RFU KRTAP10-11 (11738290_x_at) / Fold change /veh KRTAP10-11 (11738290_x_at) / RFU MYO3A (11730013_a_at) / Fold change /veh MYO3A (11730013_a_at) / RFU EBF3 (11725865_a_at) / Fold change /veh EBF3 (11725865_a_at) / RFU CAMK2N1 (11719241_x_at) / Fold change /veh CAMK2N1 (11719241_x_at) / RFU C5orf56 (11738088_a_at) / Fold change /veh C5orf56 (11738088_a_at) / RFU OLFML3 (11715873_a_at) / Fold change /veh OLFML3 (11715873_a_at) / RFU LOC100653217 /// NTM (11731650_a_at) / Fold change /veh LOC100653217 /// NTM (11731650_a_at) / RFU MAPK11 (11762145_a_at) / Fold change /veh MAPK11 (11762145_a_at) / RFU FIZ1 (11724087_x_at) / Fold change /veh FIZ1 (11724087_x_at) / RFU OASL (11726364_x_at) / Fold change /veh OASL (11726364_x_at) / RFU SOX15 (11748057_x_at) / Fold change /veh SOX15 (11748057_x_at) / RFU CD79A (11719716_a_at) / Fold change /veh CD79A (11719716_a_at) / RFU HIST1H1D (11736915_at) / Fold change /veh HIST1H1D (11736915_at) / RFU CASKIN2 (11723855_a_at) / Fold change /veh CASKIN2 (11723855_a_at) / RFU LOC730098 (11760151_x_at) / Fold change /veh LOC730098 (11760151_x_at) / RFU OR4N2 (11742367_at) / Fold change /veh OR4N2 (11742367_at) / RFU PRRT2 (11749266_a_at) / Fold change /veh PRRT2 (11749266_a_at) / RFU SNX32 (11753110_a_at) / Fold change /veh SNX32 (11753110_a_at) / RFU CDHR5 (11726645_a_at) / Fold change /veh CDHR5 (11726645_a_at) / RFU RCAN1 (11760418_a_at) / Fold change /veh RCAN1 (11760418_a_at) / RFU FAM167A (11723789_a_at) / Fold change /veh FAM167A (11723789_a_at) / RFU FAM26E (11764081_at) / Fold change /veh FAM26E (11764081_at) / RFU ISYNA1 (11749810_s_at) / Fold change /veh ISYNA1 (11749810_s_at) / RFU ACY1 (11761880_at) / Fold change /veh ACY1 (11761880_at) / RFU 11764098_at / Fold change /veh 11764098_at / RFU SAMD14 (11745864_x_at) / Fold change /veh SAMD14 (11745864_x_at) / RFU NPB (11741838_a_at) / Fold change /veh NPB (11741838_a_at) / RFU TMPRSS6 (11731388_a_at) / Fold change /veh TMPRSS6 (11731388_a_at) / RFU KRTAP10-2 (11738614_at) / Fold change /veh KRTAP10-2 (11738614_at) / RFU ARHGAP8 /// PRR5-ARHGAP8 (11727945_x_at) / Fold change /veh ARHGAP8 /// PRR5-ARHGAP8 (11727945_x_at) / RFU KRTAP5-7 /// NADSYN1 (11734609_at) / Fold change /veh KRTAP5-7 /// NADSYN1 (11734609_at) / RFU RASL12 (11751679_a_at) / Fold change /veh RASL12 (11751679_a_at) / RFU CDKN2B (11736163_a_at) / Fold change /veh CDKN2B (11736163_a_at) / RFU PRF1 (11729649_at) / Fold change /veh PRF1 (11729649_at) / RFU, ZNF638 /// ZNF638-IT1 / Fold change vs veh, ZNF638 /// ZNF638-IT1 / RFU, PANK3 / Fold change vs veh, PANK3 / RFU, SH3YL1 / Fold change vs veh, SH3YL1 / RFU, ZEB2 / Fold change vs veh, ZEB2 / RFU, NRIP1 / Fold change vs veh, NRIP1 / RFU, PTTG1IP / Fold change vs veh, PTTG1IP / RFU, CAPN2 / Fold change vs veh, CAPN2 / RFU, MED14 / Fold change vs veh, MED14 / RFU, SNORA58 / Fold change vs veh, SNORA58 / RFU, C1orf63 / Fold change vs veh, C1orf63 / RFU, LRRFIP1 / Fold change vs veh, LRRFIP1 / RFU, NDUFAF7 / Fold change vs veh, NDUFAF7 / RFU, SLC12A2 / Fold change vs veh, SLC12A2 / RFU, IBTK / Fold change vs veh, IBTK / RFU, ESF1 / Fold change vs veh, ESF1 / Fold change vs veh, TMEM50B / RFU, TAOK1 / Fold change vs veh, TAOK1 / RFU, ACBD3 / Fold change vs veh, ACBD3 / RFU, TMA16 / Fold change vs veh, TMA16 / RFU, RWDD3 / Fold change vs veh, RWDD3 / RFU, BCAT1 / Fold change vs veh, BCAT1 / RFU, EDEM3 / Fold change vs veh, EDEM3 / RFU, TMEM33 / Fold change vs veh, TMEM33 / RFU, WDR75 / Fold change vs veh, WDR75 / RFU, AHCTF1 / Fold change vs veh, AHCTF1 / RFU, TFRC / Fold change vs veh, TFRC / RFU, ZDHHC17 / Fold change vs veh, ZDHHC17 / RFU, NOM1 / Fold change vs veh, NOM1 / RFU, ARL8B / Fold change vs veh, ARL8B / RFU, ZBTB11 / Fold change vs veh, ZBTB11 / RFU, TAMM41 / Fold change vs veh, TAMM41 / RFU, KIAA1704 /// LOC100996395 / Fold change vs veh, KIAA1704 /// LOC100996395 / RFU, ING1 / Fold change vs veh, ING1 / RFU, TRMT61B / Fold change vs veh, TRMT61B / RFU, FUBP3 / Fold change vs veh, FUBP3 / RFU, TP53 / Fold change vs veh, TP53 / RFU, TNKS2 / Fold change vs veh, TNKS2 / RFU, ZFP14 / Fold change vs veh, ZFP14 / RFU, ACTR2 / Fold change vs veh, ACTR2 / RFU, PPP3R1 / Fold change vs veh, PPP3R1 / RFU, PIK3R1 / Fold change vs veh, PIK3R1 / RFU, HNRNPA1 / Fold change vs veh, HNRNPA1 / RFU, RNF170 / Fold change vs veh, RNF170 / RFU, ZNF28 / Fold change vs veh, ZNF28 / RFU, RNGTT / Fold change vs veh, RNGTT / RFU, OGT / Fold change vs veh, OGT / RFU, BRD1 / Fold change vs veh, BRD1 / RFU, MARS / Fold change vs veh, MARS / RFU, ZNF655 / Fold change vs veh, ZNF655 / RFU, FAHD1 / Fold change vs veh, FAHD1 / RFU, BDP1 / Fold change vs veh, BDP1 / RFU, LRRCC1 / Fold change vs veh, LRRCC1 / RFU, ARID1A / Fold change vs veh, ARID1A / RFU, ZNF146 / Fold change vs veh, ZNF146 / RFU, ZNF330 / Fold change vs veh, ZNF330 / RFU, GPN3 / Fold change vs veh, GPN3 / RFU, C9orf123 / Fold change vs veh, C9orf123 / RFU, N4BP2L2 / Fold change vs veh, N4BP2L2 / RFU, ARFIP1 / Fold change vs veh, ARFIP1 / RFU, FAM179B / Fold change vs veh, FAM179B / RFU, BCL10 / Fold change vs veh, BCL10 / RFU, UHRF1BP1L / Fold change vs veh, UHRF1BP1L / RFU, BET1 / Fold change vs veh, BET1 / RFU, CNOT2 / Fold change vs veh, CNOT2 / RFU, ZNF268 / Fold change vs veh, ZNF268 / Fold change vs veh, ZNF507 / RFU, DGCR2 / Fold change vs veh, DGCR2 / RFU, WDSUB1 / Fold change vs veh, WDSUB1 / Fold change vs veh, HSP90B1 /// MIR3652 / RFU, ADSS / Fold change vs veh, ADSS / RFU, GK / Fold change vs veh, GK / RFU, ZNF148 / Fold change vs veh, ZNF148 / RFU, TAF9 / Fold change vs veh, TAF9 / RFU, SLC1A5 / Fold change vs veh, SLC1A5 / RFU, SLMO2 / Fold change vs veh, SLMO2 / RFU, ABCC4 / Fold change vs veh, ABCC4 / RFU, LOC101060439 /// RAP1B / Fold change vs veh, LOC101060439 /// RAP1B / RFU, RFX7 / Fold change vs veh, RFX7 / RFU, GTPBP10 / Fold change vs veh, GTPBP10 / RFU, CNEP1R1 / Fold change vs veh, CNEP1R1 / RFU, BIVM-ERCC5 /// ERCC5 / Fold change vs veh, BIVM-ERCC5 /// ERCC5 / RFU, ILF3 / Fold change vs veh, ILF3 / RFU 11762660_at / Fold change /veh 11762660_at / RFU VCAN (11757783_s_at) / Fold change /veh VCAN (11757783_s_at) / RFU DDX43 (11728927_at) / Fold change /veh DDX43 (11728927_at) / RFU KRT8 (11758188_x_at) / Fold change /veh KRT8 (11758188_x_at) / RFU NKD1 (11759106_at) / Fold change /veh NKD1 (11759106_at) / RFU SRD5A1 (11742802_a_at) / Fold change /veh SRD5A1 (11742802_a_at) / RFU TPSAB1 /// TPSB2 (11721975_s_at) / Fold change /veh TPSAB1 /// TPSB2 (11721975_s_at) / RFU GSTM3 (11746129_a_at) / Fold change /veh GSTM3 (11746129_a_at) / RFU IL23R (11737362_x_at) / Fold change /veh IL23R (11737362_x_at) / RFU TMEM51 (11727254_a_at) / Fold change /veh TMEM51 (11727254_a_at) / RFU PIWIL2 (11732686_x_at) / Fold change /veh PIWIL2 (11732686_x_at) / RFU ORM1 (11744905_x_at) / Fold change /veh ORM1 (11744905_x_at) / RFU CCDC152 (11743942_at) / Fold change /veh CCDC152 (11743942_at) / RFU ECM1 (11717891_a_at) / Fold change /veh ECM1 (11717891_a_at) / RFU IL23R (11748794_a_at) / Fold change /veh IL23R (11748794_a_at) / RFU TNFAIP8L3 (11732012_x_at) / Fold change /veh TNFAIP8L3 (11732012_x_at) / RFU MBOAT4 (11741988_at) / Fold change /veh MBOAT4 (11741988_at) / RFU 11764193_at / Fold change /veh 11764193_at / RFU TMEM53 (11763286_at) / Fold change /veh TMEM53 (11763286_at) / RFU MAGEB2 (11727129_at) / Fold change /veh MAGEB2 (11727129_at) / RFU TMEM200A (11744735_a_at) / Fold change /veh TMEM200A (11744735_a_at) / RFU CCDC152 (11751479_a_at) / Fold change /veh CCDC152 (11751479_a_at) / RFU FAM211A (11726209_a_at) / Fold change /veh FAM211A (11726209_a_at) / RFU RGS16 (11746705_a_at) / Fold change /veh RGS16 (11746705_a_at) / RFU VCAN (11755009_s_at) / Fold change /veh VCAN (11755009_s_at) / RFU RHOB (11743442_s_at) / Fold change /veh RHOB (11743442_s_at) / RFU RGS16 (11720943_a_at) / Fold change /veh RGS16 (11720943_a_at) / RFU RGS16 (11720944_at) / Fold change /veh RGS16 (11720944_at) / RFU, VPS4B / Fold change vs veh, VPS4B / RFU, CREB1 / Fold change vs veh, CREB1 / RFU, DNAJC13 / Fold change vs veh, DNAJC13 / RFU, GNAQ / Fold change vs veh, GNAQ / RFU, CDK5R1 / Fold change vs veh, CDK5R1 / RFU, ZRANB3 / Fold change vs veh, ZRANB3 / RFU, CUL4A / Fold change vs veh, CUL4A / RFU, CCNY / Fold change vs veh, CCNY / RFU, UFL1 / Fold change vs veh, UFL1 / RFU, COG3 / Fold change vs veh, COG3 / RFU, DIAPH2 / Fold change vs veh, DIAPH2 / RFU, SKA2 / Fold change vs veh, SKA2 / RFU, AFF3 / Fold change vs veh, AFF3 / RFU, LMF1 / Fold change vs veh, LMF1 / RFU, IPO11 / Fold change vs veh, IPO11 / RFU, DFFB / Fold change vs veh, DFFB / RFU, FOXP1 / Fold change vs veh, FOXP1 / RFU, CARD8 / Fold change vs veh, CARD8 / RFU, STRN3 / Fold change vs veh, STRN3 / RFU, ADK / Fold change vs veh, ADK / RFU, RASSF2 / Fold change vs veh, RASSF2 / RFU, WIPF1 / Fold change vs veh, WIPF1 / RFU, LARP1B / Fold change vs veh, LARP1B / RFU, RASA1 / Fold change vs veh, RASA1 / RFU, RB1 / Fold change vs veh, RB1 / RFU, PPFIA1 / Fold change vs veh, PPFIA1 / RFU, MAT2A / Fold change vs veh, MAT2A / RFU, CCT5 / Fold change vs veh, CCT5 / RFU, WDR92 / Fold change vs veh, WDR92 / RFU, CUX1 / Fold change vs veh, CUX1 / RFU, TTC7A / Fold change vs veh, TTC7A / RFU, TMEM135 / Fold change vs veh, TMEM135 / RFU, DEPTOR / Fold change vs veh, DEPTOR / RFU, CPM / Fold change vs veh, CPM / RFU, DNAJB6 / Fold change vs veh, DNAJB6 / RFU, CACNA2D3 / Fold change vs veh, CACNA2D3 / RFU, DTX4 / Fold change vs veh, DTX4 / RFU, TFCP2 / Fold change vs veh, TFCP2 / RFU, GMCL1 /// GMCL1P1 / Fold change vs veh, GMCL1 /// GMCL1P1 / RFU, AEBP2 / Fold change vs veh, AEBP2 / RFU, SNHG1 /// SNORD22 /// SNORD25 /// SNORD26 /// SNORD27 /// SNORD28 /// SNORD29 /// SNORD31 / Fold change vs veh, SNHG1 /// SNORD22 /// SNORD25 /// SNORD26 /// SNORD27 /// SNORD28 /// SNORD29 /// SNORD31 / Fold change (Aza/veh), C12orf56 (ProbeSet 11735607_a_at) / Fold change (ACY-1035/veh), C12orf56 (ProbeSet 11735607_a_at) / Fold change (Aza/veh), FGFR1OP (ProbeSet 11751329_s_at) / Fold change (ACY-1035/veh), FGFR1OP (ProbeSet 11751329_s_at) / Fold change (Aza/veh), VPS36 (ProbeSet 11739960_a_at) / Fold change (ACY-1035/veh), VPS36 (ProbeSet 11739960_a_at) / RFU SYPL1 (11715823_x_at) / Fold change /veh SYPL1 (11715823_x_at) / RFU IGFBP7 (11715501_s_at) / Fold change /veh IGFBP7 (11715501_s_at) / RFU REEP3 (11722064_at) / Fold change /veh REEP3 (11722064_at) / RFU IGLL1 (11728026_x_at) / Fold change /veh IGLL1 (11728026_x_at): dose or concentration left out as unconfirmed. The note with it: ProbeSet 11723475_a_at; LIST B.

For `Nc1ccc(-c2cccs2)cc1NC(=O)c1ccc2c(c1)cc(C1CC1)n2CCN1CCOCC1` [ACY-1035], the “Fold change vs veh, TRMT61B” value worked out at 0.88.
